Substitutions are numbered along the chain they refer to.
Tests used:
[1] = molecular target: T1, K13A (Caulobacter vibrioides, UniProt Q9A6C9, K13A); assay: Stopped-flow FRET transient kinetics of mant-ADP binding to MipZ (excitation 297 nm, 360 nm cut-off) at 30 °C in 50 mM Hepes/NaOH pH 7.2, 50 mM KCl, 10 mM MgCl2, 1 mM β-mercaptoethanol; KD calculated as koff/kon, with koff from displacement by excess unlabeled nucleotide.
T1 construct: gene mipZ; hexahistidine-tagged, full length, overproduced in E. coli Rosetta2(DE3)pLysS; constitutively monomeric
T1 sequence (Q9A6C9 1-278 K13A): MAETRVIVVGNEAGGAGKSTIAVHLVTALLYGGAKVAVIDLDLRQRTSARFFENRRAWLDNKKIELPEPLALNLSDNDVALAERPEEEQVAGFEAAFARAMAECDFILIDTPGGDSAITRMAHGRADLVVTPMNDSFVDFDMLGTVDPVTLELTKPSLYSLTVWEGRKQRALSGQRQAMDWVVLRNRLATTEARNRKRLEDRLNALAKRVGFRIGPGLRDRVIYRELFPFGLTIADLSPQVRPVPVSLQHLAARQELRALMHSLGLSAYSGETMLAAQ
Description: (§1) Once released from the dimeric complex, MipZ monomers must undergo nucleotide exchange to enter the next reaction cycle (Figure 2A). To clarify the requirements for the exchange reaction, we studied the nucleotide binding kinetics of MipZ by monitoring its interaction with methylanthraniloyl (mant)-labeled ADP and ATP analogs (Figure S3). Since the mant group blocks dimer formation, our measurements specifically focused on the initial nucleotide-binding step without interference from subsequent reactions.
(§2) Figure S3. Steady-state and transient kinetic analysis of nucleotide binding to MipZ, Related to Table 2.
(§3) (A) Fluorescence emission spectra of mant-ATP. MipZ (1 µM) and/or mant-ATP (60 µM) were mixed in buffer BC containing no (+ Mg2+) or 10 mM (- Mg2+) EDTA. Emission spectra were recorded in a PC1 photon-counting spectrofluorimeter (ISS) using fluorescence resonance energy transfer (FRET) and an excitation wavelength of 290 nm.
(§4) (B) Association of MipZ with mant nucleotides.
(§5) (data not shown), necessitating the use of ADP and ATP analogues that carried a fluorescent methylanthraniloyl (mant) group attached to the 2'- or 3'-hydroxy group of the ribose moiety. Due to the bulkiness of the mant group and a critical role of these hydroxy groups in MipZ dimerization, the modified nucleotides are predicted to block dimer formation, consistent with their failure to be hydrolyzed by MipZ or mediate MipZ self-association in the SPR assay (data not shown). This circumstance allowed us to focus the measurements on the initial nucleotide binding step without interference from subsequent reactions.
(§6) Interaction of the mant group with the protein surface led to a marked increase in fluorescence (panel A). Consistent with the easy accessibility of the nucleotide-binding site and the lack of major conformational changes, the transients recorded after rapid mixing of MipZ with mant nucleotides could be fitted to single-exponential equations, indicating single-step binding reactions.
(§7) Shown is a typical curve representing the change in mant fluorescence upon binding of mant-ATP (30 µM) to MipZ (1 µM).
(§8) Fitting of the data yielded a pseudo-first order rate constant (kobs) of 4.7 s-1. […]
(§9) determining the second-order rate constant of the association reaction. Shown is a representative graph in which the kobs values measured for mant-ATP were plotted against the corresponding mant-ATP concentrations. […]
(§10) (D) Dissociation of mant nucleotides from MipZ. In order to determine the dissociation rate constants (koff), we monitored the displacement of mant-labeled nucleotides from MipZ by an excess of unlabeled nucleotide. […] Shown is a typical curve representing the change in mant fluorescence upon dissociation of mant-ATP (30 µM) from MipZ (1 µM) in the presence of 2 mM ATP. […]

[2] = molecular target: T2, G14V (Caulobacter vibrioides, UniProt Q9A6C9, G14V); assay: as above
T2 construct: gene mipZ; hexahistidine-tagged, full length, overproduced in E. coli Rosetta2(DE3)pLysS; constitutively monomeric
T2 sequence (Q9A6C9 1-278 G14V): T1 sequence (Q9A6C9 1-278 K13A) with A13K, G14V
Description: as §1, §2, §3, §4, §5, §6, §7, §8, §9, §10

[3] = molecular target: T3, WT (MipZ) (Caulobacter vibrioides, UniProt Q9A6C9); assay: as above
T3 construct: hexahistidine-tagged, full length, overproduced in E. coli Rosetta2(DE3)pLysS
T3 sequence (Q9A6C9 1-278): T1 sequence (Q9A6C9 1-278 K13A) with A13K
Description: as §1, §2, §3, §4, §5, §6, §7, §8, §9, §10

[4] = molecular target: T4, D42A (Caulobacter vibrioides, UniProt Q9A6C9, D42A); assay: as above
T4 construct: gene mipZ; hexahistidine-tagged, full length, overproduced in E. coli Rosetta2(DE3)pLysS
T4 sequence (Q9A6C9 1-278 D42A): T1 sequence (Q9A6C9 1-278 K13A) with A13K, D42A
Description: as §1, §2, §3, §4, §5, §6, §7, §8, §9, §10

[5] = molecular target: T1, K13A; assay: Stopped-flow FRET transient kinetics of mant-ATP binding to MipZ (excitation 297 nm, 360 nm cut-off) at 30 °C in 50 mM Hepes/NaOH pH 7.2, 50 mM KCl, 10 mM MgCl2, 1 mM β-mercaptoethanol; KD calculated as koff/kon, with koff from displacement by excess unlabeled nucleotide.
Description: as §1, §2, §3, §4, §5, §6, §7
(§11) Fitting of the data yielded a pseudo-first order rate constant (kobs) of 4.7 s-1.
(§12) (C) Determination of the second-order association rate constants (kon). The pseudo-first order rate constants for the association of […]
(§13) determining the second-order rate constant of the association reaction. Shown is a representative graph in which the kobs values measured for mant-ATP were plotted against the corresponding mant-ATP concentrations. Fitting of the data to the linear function kobs=kon[mant-ATP]+koff yielded a value of 6.8 x 104 M-1s-1 for kon.
(§14) (D) Dissociation of mant nucleotides from MipZ. In order to determine the dissociation rate constants (koff), we monitored the displacement of mant-labeled nucleotides from MipZ by an excess of unlabeled nucleotide. All transients obtained could be fitted to single-exponential functions. Shown is a typical curve representing the change in mant fluorescence upon dissociation of mant-ATP (30 µM) from MipZ (1 µM) in the presence of 2 mM ATP. […]

[6] = molecular target: T2, G14V; assay: as above
Description: as §1, §2, §3, §4, §5, §6, §7, §11, §12, §13, §14

[7] = molecular target: T3, WT (MipZ); assay: as above
Description: as §1, §2, §3, §4, §5, §6, §7, §11, §12, §13, §14

[8] = molecular target: T5, K18Q (Caulobacter vibrioides, UniProt Q9A6C9, K18Q); assay: as above
T5 construct: gene mipZ; hexahistidine-tagged, full length, overproduced in E. coli Rosetta2(DE3)pLysS; constitutively monomeric
T5 sequence (Q9A6C9 1-278 K18Q): T1 sequence (Q9A6C9 1-278 K13A) with A13K, K18Q
Description: as §1, §2, §3, §4, §5, §6, §7, §11, §12, §13, §14

[9] = molecular target: T4, D42A; assay: as above
Description: as §1, §2, §3, §4, §5, §6, §7, §11, §12, §13, §14

SMILES	Kd [1] [µM]	Kd [2] [µM]	Kd [3] [µM]	Kd [4] [µM]	Kd [5] [µM]	Kd [6] [µM]	Kd [7] [µM]	Kd [8] [µM]	Kd [9] [µM]
CNc1ccccc1C(=O)O[C@H]1[C@@H](O)[C@H](n2cnc3c(N)ncnc32)O[C@@H]1COP(=O)(O)OP(=O)(O)O [mant-ADP, 2'/3'-O-methylanthraniloyl-ADP (methylanthraniloyl-labeled ADP)]	41	4.5	26	69	–	–	–	–	–
CNc1ccccc1C(=O)O[C@H]1[C@@H](O)[C@H](n2cnc3c(N)ncnc32)O[C@@H]1CO[P@@](=O)(O)O[P@](=O)(O)OP(=O)(O)O [mant-ATP, 2'/3'-O-methylanthraniloyl-ATP (methylanthraniloyl-labeled ATP)]	–	–	–	–	38	1.3	31	121	58
